Data reported in patent US7053078B2, “Serine protease inhibitors” (Eli Lilly and Company, priority 2000, dated 2006).

Q: With COc1ccc(C(=O)N[C@@H](CNC(=O)C2CCN(C3CCCC3)CC2)c2ccccc2)cc1 as the molecule, how does the melting point read?
A: The melting point was 253 to 257 °C.

Q: For COc1ccc(C(=O)N[C@@H](CNC(=O)C2CCN(C3CCCCC3)CC2)c2ccccc2)cc1, which melting point is on record?
A: The melting point was 239 to 243 °C.

Q: With CCN1CCC(C(=O)NC[C@H](NC(=O)c2ccc(OC)cc2)c2ccccc2)CC1 as the molecule, how does the melting point read?
A: The melting point was 245 to 251 °C.

Q: With COc1ccc(C(=O)N[C@@H](CNC(=O)C2CCN(C3CCN(C)CC3)CC2)c2ccccc2)cc1 as the molecule, how does the melting point read?
A: Its melting point is 252 to 259 °C.
